The values that follow come from PMC9818267, “Brain Natriuretic Peptide Protects Cardiomyocytes from Apoptosis and Stimulates Their Cell Cycle Re-Entry in Mouse Infarcted Hearts” (Cells, 2022).

No end group written: not given here.

The subject of data set [1] is cardiomyocytes (CMs). In words: Immunostaining of cell cycle markers (BrdU, Ki67, pH3, Aurkb) in CMs of BNP-treated hearts. Format: in vivo, mouse. As for the experimental part:
For all experiments with adult mice, BrdU (1 mg/mL) was added into the drinking water during the entire period of the experiments. BrdU (40 µL/mice, 10 mg/mL) was ip injected in newborn mice on day 5 and 9 after birth.
(§1) Cells or OCT heart sections (5 µm-thick cryosections) were washed in PBS 1X and fixed in paraformaldehyde (2%) or formol (4%) for 10 min at RT. After 10 min of permeabilization (0.3% Triton x-100 in PBS) and one hour of blocking with normal serum, sections were probed with primary antibodies overnight at 4 °C (Supplementary File S1). The second day, the secondary antibody was added on cells or heart sections. Slides were mounted with Dabco (Sigma) and pictures were captured with Nikon Eclipse TS100 or 90i microscope. Images were processed with Adobe Photoshop CC2015.
For the detection of BrdU incorporation, heart slides were fixed 10 min in 2% PFA, DNA was denatured 1 h at RT in HCl 2N before neutralization in Na Borate 0.1 M pH = 8.5 during 2 × 5 min. Then, sections were probed with primary antibodies overnight at 4 °C (Supplementary File S1).

Data set [2] can be described thus: Survival of infarcted mice at 14 days. It is filed as in vivo, mouse. The conditions noted are these: 14 days after MI; BNP ip every 2 days; saline group 83.9%. As for the experimental part:
To generate a permanent infarction, a ligation of the left anterior descending coronary artery (LAD) was performed in 6–8-week-old C57BL/6- or 8-week-old Myh6 MerCreMer mice, already injected with Tamoxifen 2 weeks before. Mice were anesthetized with ketamine/xylazine and acepromazine (65 mg/kg, 15 mg/kg, 2 mg/kg, respectively). Mice were intubated and ventilated during all the entire period of surgery. At the third intercostal space, the chest cavity was opened and at the left upper sterna border, the LAD coronary artery was ligated with a 7–0 nylon suture at about 1–2 mm from the atria. After surgery, Temgesic (Buprenorphine, 0.1 mg/kg) was injected subcutaneously as soon as the mice woken up and every 8–12 h for 2 days. Adult mice were sacrificed by lethal injection of pentobarbital (150 mg/kg intraperitoneally) 2 weeks after the surgery. The breathing arrest was controlled and cervical dislocation was performed.
BNP was injected into infarcted adults, and unmanipulated neonatal and adult mice. Directly after surgery, NaCl (saline) or BNP (1.3 µg/20 g in 20 µL) was injected into the left ventricle cavity. At 24 h after MI, mice were intraperitoneal (ip) injected with BNP (2 µg/20 g mice) or saline every 2 days. C57BL/6 mice were sacrificed 1- and 14 days post-MI and Myh6 MerCreMer mice were sacrificed 14 days post-MI (Figure 1A). […]

A further data set relates to p38. Briefly: Western blot pp38/p38 in adult CMs stimulated in vitro. The conditions noted are these: adult CMs stimulated with BNP for 2–3 h in vitro, vs untreated. Format: cell-based, mouse. As for the experimental part: CM isolations were performed thanks to the Langendorff-Free method. […] Thereafter, the heart was removed from the chest and the left ventricle was perfused with enzymatic solution containing collagenase II (120 U/mL), collagenase IV (120 U/mL) (Worthington, Biochemical Corporation, USA) and protease XIV (0.05 mg/mL or 0.175 U/mL) (Sigma-Aldrich, Merck, Darmstadt, Germany). In each experiment, a full digestion of the heart was obtained. After digestion, cardiac cells were dissociated by gentle pipetting, filtered and collected after 25 min sedimentation. For infarcted hearts, the tissue was separated into the three zones (ZI, BZ and RZ). The three different areas were weighted before gentle pipetting.
Total proteins were extracted from CMs isolated from adult infarcted and unmanipulated neonatal and adult hearts. Proteins were transferred to nitrocellulose membranes (Biorad) before incubation with primary antibodies overnight at 4 °C. Secondary antibodies were added 1 h at RT in the dark (Supplementary File S1). The signal was detected and quantified with the Odyssey infrared imaging system (LI-COR. Biosciences, Bad Homburg, Germany). All results were normalized to the tubulin protein level or to the total protein level thanks to stainings with the Revert 700 Total protein Stain (LI-COR).
(In general: A western blot detects proteins with antibodies after separation by electrophoresis.)

The subject of the next data set is DAPI+ Troponin I+ cells. Briefly: Flow cytometry of apoptotic CMs (DAPI+ Troponin I+ cells) after isolation. Format: in vivo, mouse. The conditions noted are these: CMs isolated from adult hearts injected during 2 weeks with BNP; saline 3.5 ± 0.5%.
For data set [3], the system named is cardiomyocytes (CMs). The conditions noted are these: adult CMs from unmanipulated BNP-treated hearts vs saline, p = 0.008; cited from earlier work. An excerpt: The percentages of mononucleated CMs increased in all the BNP-treated hearts (Figure 2B,E,G).
The subject of a further data set is caspase 3+ CMs. Briefly: Immunostaining of caspase 3+ CMs in infarcted area. It is filed as in vivo, mouse. The conditions noted are these: infarcted area 1 day after MI, BNP vs saline. As for the experimental part: as §1
The mark [4] stands for this setting: infarct and border area 10 days after MI, BNP vs saline.
[5] abbreviates: neonatal BNP-treated hearts vs saline.
Where [6] appears, read: unmanipulated adult hearts, BNP vs saline.

On to “Brain Natriuretic Peptide (SQGSTLRVQQRPQNSKVTHISSCFGHKIDRIGSVSRLGCNALKLL; not fully specified; ends and bridges not checked; UniProt P40753 77-121, looked up) [BNP, synthetic mouse BNP (1–45) peptide (Bachem, catalog number H-7558)]”, for which the “increase of percentage of BrdU+ GFP+ α actinin+ cells among GFP+ α actinin+ cells” value with cardiomyocytes (CMs) [1] (ZI+BZ of infarcted Myh6 MerCreMer mice injected with tamoxifen, BNP vs saline) is listed as 20%. Further, in the data set with cardiomyocytes (CMs) [1] (setting [4]), the “increase of percentage of CMs expressing Aurkb” value is listed as 2.8 ×, the “increase of percentage of CMs expressing Ki67” value came to 50%, the “increase of percentage of CMs expressing pH3” value is on record as 40% and the “increase of percentage of CMs incorporating BrdU” value was 70%. The “number of Aurkb+ CMs undergoing cytokinesis or binucleation” value in the data set on cardiomyocytes (CMs) [1] (infarcted hearts, among Aurkb+ CMs, BNP vs saline) is listed as “slightly increased”. In addition, in the data set on cardiomyocytes (CMs) [1] (setting [5]), the “increase of number of Aurkb+ CMs undergoing cytokinesis or binucleation” value was 1.4 fold, the “increase of number of CMs expressing Aurkb” value was 47.5%, the “increase of number of CMs expressing Ki67” value worked out at 15% and the “increase of number of CMs expressing pH3” value is reported as 41%. Moreover, the “increase of number of CMs incorporating BrdU” value in the data set on cardiomyocytes (CMs) [1] (setting [5]) came to 23%. Also, in the data set on cardiomyocytes (CMs) [1] (setting [6]), the “increase of percentage of CMs expressing pH3” value is on record as 94% and the “increase of percentage of CMs incorporating BrdU” value came out at 67%. Further, the “survival of infarcted mice” value in data set [2] is recorded as 84.2%. In the data set with p38, the pp38/p38 ratio entry is reported as “did not change”. For the same substance, the “percentage of DAPI+ CMs” value in the data set on DAPI+ Troponin I+ cells is on record as 4 ± 1%. Besides, the “CM cross-sectional area change” value with cardiomyocytes (CMs) [3] is given as −6%. For the same substance, in the data set with caspase 3+ CMs, the “number of caspase 3+ CMs change” value is on record as −13%.
